Several values for one entry are separate records, joined by “and”; a condition that tells them apart may be missing. Identical values can stand only once. Entries after “also recorded” stand apart in the source; their conditions may differ. Like-named read-outs stand apart in the source and are kept apart here.
Key:
hNav1.7 [1] = target: T1, hNav1.7 (Homo sapiens, UniProt Q15858); assay: cell-based; assay type: cell-based
hNav1.7 [2] = target: T1, hNav1.7; assay: cell-based; assay type: cell-based; details: for block of hNav1.7 current, in words: 100 pM; for 1.x/1.7: hNav1.7 / hNav1.7
mNav1.7 = mNav1.7 (Mus musculus, UniProt Q62205); assay: cell-based; details: for IC50: PatchXpress, tonic block, mouse Nav1.7, read-out: PX mNav1.7 Tonic IC50; for mNav1.7/hNav1.7: ratio of PX tonic IC50, mouse Nav1.7 over human Nav1.7
Sequence of mNav1.7 (Q62205 whole entry): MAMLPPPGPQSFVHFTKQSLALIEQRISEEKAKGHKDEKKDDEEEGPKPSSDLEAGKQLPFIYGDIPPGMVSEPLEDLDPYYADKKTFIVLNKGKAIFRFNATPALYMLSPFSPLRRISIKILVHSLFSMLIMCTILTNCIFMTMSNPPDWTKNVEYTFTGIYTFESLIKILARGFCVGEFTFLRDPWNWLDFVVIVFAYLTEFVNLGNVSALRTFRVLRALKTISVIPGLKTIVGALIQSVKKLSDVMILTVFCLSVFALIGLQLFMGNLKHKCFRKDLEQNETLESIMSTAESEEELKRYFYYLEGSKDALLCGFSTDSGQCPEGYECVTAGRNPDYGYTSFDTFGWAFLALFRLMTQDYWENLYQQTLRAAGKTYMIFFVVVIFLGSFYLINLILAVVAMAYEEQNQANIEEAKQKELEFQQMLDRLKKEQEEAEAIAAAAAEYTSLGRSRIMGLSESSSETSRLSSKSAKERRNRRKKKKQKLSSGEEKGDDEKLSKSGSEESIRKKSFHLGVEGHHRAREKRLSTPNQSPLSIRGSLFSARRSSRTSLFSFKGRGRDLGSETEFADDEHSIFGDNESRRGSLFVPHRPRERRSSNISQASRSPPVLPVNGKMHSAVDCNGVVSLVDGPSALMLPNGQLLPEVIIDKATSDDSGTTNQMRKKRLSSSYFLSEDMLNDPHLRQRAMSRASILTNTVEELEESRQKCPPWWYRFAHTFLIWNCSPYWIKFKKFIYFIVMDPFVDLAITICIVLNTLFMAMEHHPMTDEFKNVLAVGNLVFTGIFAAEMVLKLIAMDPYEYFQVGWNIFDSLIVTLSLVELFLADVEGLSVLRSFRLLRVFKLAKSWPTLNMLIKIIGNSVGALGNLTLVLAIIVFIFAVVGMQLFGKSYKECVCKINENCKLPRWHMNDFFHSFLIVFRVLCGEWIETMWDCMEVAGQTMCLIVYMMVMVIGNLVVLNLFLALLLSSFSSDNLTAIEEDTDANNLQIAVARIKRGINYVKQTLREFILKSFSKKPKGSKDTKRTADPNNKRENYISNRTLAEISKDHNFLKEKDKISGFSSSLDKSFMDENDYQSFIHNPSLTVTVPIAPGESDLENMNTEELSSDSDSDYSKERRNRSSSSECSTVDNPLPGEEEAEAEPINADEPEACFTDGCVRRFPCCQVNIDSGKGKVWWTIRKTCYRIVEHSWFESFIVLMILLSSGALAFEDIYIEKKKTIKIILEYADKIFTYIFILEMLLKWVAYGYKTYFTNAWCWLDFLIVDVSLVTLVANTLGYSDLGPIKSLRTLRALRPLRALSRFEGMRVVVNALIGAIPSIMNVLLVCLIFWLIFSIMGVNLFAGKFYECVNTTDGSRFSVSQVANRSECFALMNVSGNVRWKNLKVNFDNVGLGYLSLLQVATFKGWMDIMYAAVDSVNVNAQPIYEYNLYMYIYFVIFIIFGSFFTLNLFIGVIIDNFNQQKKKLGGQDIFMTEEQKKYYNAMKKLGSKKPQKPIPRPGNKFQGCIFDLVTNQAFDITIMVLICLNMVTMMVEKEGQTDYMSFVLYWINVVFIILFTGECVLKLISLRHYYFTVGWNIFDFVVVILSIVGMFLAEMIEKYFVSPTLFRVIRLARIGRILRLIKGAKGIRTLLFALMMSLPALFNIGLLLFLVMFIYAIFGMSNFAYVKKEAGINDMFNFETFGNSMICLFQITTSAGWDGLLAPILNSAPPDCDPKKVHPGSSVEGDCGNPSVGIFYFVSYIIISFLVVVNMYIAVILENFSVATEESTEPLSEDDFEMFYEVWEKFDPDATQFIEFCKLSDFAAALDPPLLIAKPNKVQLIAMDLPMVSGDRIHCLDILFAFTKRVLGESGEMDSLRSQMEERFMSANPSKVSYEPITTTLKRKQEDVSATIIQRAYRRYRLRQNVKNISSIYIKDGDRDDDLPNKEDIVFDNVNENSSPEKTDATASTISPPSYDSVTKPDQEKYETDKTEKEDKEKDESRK

rNav1.7 = rNav1.7 (Rattus norvegicus, UniProt O08562); assay: cell-based; details: for IC50: PatchXpress, tonic block, rat Nav1.7, read-out: PX rNav1.7 Tonic IC50; for rNav1.7/hNav1.7: ratio of PX tonic IC50, rat Nav1.7 over human Nav1.7
mouse Nav1.4 = mouse Nav1.4 (Mus musculus, UniProt Q9ER60); assay: cell-based; details: for IC50: PatchXpress, tonic block, mouse Nav1.4, read-out: PX mNav1.4 Tonic IC50; for mNav1.4/mNav1.7: ratio of PX tonic IC50, mouse Nav1.4 over mouse Nav1.7
Sequence of mouse Nav1.4 (Q9ER60 whole entry): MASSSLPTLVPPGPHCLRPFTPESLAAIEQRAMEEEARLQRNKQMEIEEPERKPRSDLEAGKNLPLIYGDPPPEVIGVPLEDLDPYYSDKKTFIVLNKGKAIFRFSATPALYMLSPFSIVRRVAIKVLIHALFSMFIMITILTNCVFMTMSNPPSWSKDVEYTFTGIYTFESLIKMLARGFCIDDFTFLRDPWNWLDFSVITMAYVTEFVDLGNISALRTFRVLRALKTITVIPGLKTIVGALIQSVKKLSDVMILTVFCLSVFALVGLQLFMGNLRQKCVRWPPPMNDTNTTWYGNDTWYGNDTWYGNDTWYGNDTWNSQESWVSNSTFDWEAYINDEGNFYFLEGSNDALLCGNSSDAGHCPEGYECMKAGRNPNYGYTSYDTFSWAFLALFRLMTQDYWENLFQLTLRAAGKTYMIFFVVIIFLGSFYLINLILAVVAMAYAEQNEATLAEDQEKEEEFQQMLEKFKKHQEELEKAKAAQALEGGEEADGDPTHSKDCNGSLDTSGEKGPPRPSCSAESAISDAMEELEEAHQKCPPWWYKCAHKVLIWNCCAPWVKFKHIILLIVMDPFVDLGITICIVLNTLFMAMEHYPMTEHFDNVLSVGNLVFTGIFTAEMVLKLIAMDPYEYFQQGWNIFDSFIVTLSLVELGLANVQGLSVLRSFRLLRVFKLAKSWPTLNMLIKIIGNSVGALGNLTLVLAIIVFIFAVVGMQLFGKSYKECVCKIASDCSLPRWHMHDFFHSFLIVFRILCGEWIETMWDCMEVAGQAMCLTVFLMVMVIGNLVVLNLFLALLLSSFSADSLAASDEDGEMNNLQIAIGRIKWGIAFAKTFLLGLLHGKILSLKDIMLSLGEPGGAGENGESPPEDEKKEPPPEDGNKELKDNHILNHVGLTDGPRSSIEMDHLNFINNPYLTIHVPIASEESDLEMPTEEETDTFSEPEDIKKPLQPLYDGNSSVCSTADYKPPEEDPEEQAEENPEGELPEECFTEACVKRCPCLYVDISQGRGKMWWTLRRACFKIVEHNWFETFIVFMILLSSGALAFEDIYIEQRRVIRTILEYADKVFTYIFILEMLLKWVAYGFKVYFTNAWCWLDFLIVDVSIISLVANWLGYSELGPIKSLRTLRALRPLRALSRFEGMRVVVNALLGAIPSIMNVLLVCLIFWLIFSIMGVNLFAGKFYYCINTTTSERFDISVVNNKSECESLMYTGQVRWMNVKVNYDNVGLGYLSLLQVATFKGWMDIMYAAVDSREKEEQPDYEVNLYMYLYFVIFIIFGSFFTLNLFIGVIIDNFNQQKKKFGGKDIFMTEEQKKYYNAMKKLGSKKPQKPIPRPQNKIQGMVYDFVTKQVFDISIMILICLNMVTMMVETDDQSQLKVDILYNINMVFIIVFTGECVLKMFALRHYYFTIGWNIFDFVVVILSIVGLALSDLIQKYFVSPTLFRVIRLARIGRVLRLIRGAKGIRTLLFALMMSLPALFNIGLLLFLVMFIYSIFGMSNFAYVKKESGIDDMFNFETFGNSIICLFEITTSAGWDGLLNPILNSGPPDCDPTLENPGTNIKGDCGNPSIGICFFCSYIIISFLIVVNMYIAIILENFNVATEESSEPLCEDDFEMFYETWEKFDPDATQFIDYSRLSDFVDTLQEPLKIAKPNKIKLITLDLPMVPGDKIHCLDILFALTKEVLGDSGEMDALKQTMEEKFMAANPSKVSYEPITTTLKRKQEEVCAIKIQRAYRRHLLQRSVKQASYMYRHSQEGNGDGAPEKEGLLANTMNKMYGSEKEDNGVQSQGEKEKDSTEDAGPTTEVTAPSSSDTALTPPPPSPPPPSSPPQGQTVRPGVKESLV

hNav1.6 = hNav1.6 (Homo sapiens, UniProt Q9UQD0); assay: cell-based; assay type: cell-based; details: Table 15
[3] = test system: TTX-sensitive Nav channels in mouse DRG neuron

Compound	IC50 (mNav1.7) [nM]	mNav1.7/hNav1.7 (mNav1.7)	IC50 (rNav1.7) [nM]	rNav1.7/hNav1.7 (rNav1.7)	IC50 (mouse Nav1.4) [nM]	mNav1.4/mNav1.7 (mouse Nav1.4)	further results
[Phe6,Atz(2 kDa EtO-PEG*-[Phe6,Atz13*]GpTx-1(1-34)1)13]GpTx-1(1-34) [Homodimeric Conjugate No. 3]	–	–	–	–	–	–	Wash out (hNav1.7 [1]): No; IC50 (hNav1.7 [1]; read-out: Nav1.7 PX IC50): 13 nM; IC50 (hNav1.7 [2]; read-out: Nav1.7 whole cell patch clamp [WCPC] IC50): 0.58 nM
C#CC[C@H](N)C(=O)N[C@@H](Cc1ccc(O)cc1)C(=O)N[C@H]1CSSC[C@@H]2NC(=O)[C@@H]3CSSC[C@@H](C(=O)N[C@@H](CCCNC(=N)N)C(=O)N[C@@H](CCCCN)C(=O)N[C@H](C(=O)N[C@H](C(N)=O)[C@@H](C)CC)[C@@H](C)CC)NC(=O)[C@H](Cc4c[nH]c5ccccc45)NC(=O)[C@H](CC(C)C)NC(=O)[C@H](CCCCN)NC(=O)[C@H](CSSC[C@H](NC(=O)[C@H]([C@@H](C)O)NC(=O)[C@H](Cc4c[nH]c5ccccc45)NC(=O)[C@H](CCCC)NC(=O)[C@H](Cc4c[nH]c5ccccc45)NC(=O)[C@H](CCCCN)NC(=O)[C@H](CCC(N)=O)NC1=O)C(=O)N[C@@H](CC(=O)O)C(=O)N[C@@H](CO)C(=O)N[C@@H](CCCCN)C(=O)N[C@@H](CCCNC(=N)N)C(=O)N[C@@H](C)C(=O)N3)NC(=O)[C@H](CCCNC(=N)N)NC(=O)[C@H](CC(C)C)NC(=O)CNC(=O)[C@H](CCC(=O)O)NC2=O [SEQ ID NO: 425, Pra-[Nle6]JzTx-V(1-29)]	0.511	0.43	0.522	0.44	0.18	0.35	–
C#CC[C@H](N)C(=O)N[C@@H](Cc1ccc(O)cc1)C(=O)N[C@H]1CSSC[C@@H]2NC(=O)[C@@H]3CSSC[C@@H](C(=O)N[C@@H](CCCNC(=N)N)C(=O)N[C@@H](CCCCN)C(=O)N[C@@H](CCC(=O)O)C(=O)N[C@H](C(N)=O)[C@@H](C)CC)NC(=O)[C@H](Cc4c[nH]c5ccccc45)NC(=O)[C@H](CC(C)C)NC(=O)[C@H](CCCCN)NC(=O)[C@H](CSSC[C@H](NC(=O)[C@H]([C@@H](C)O)NC(=O)[C@H](Cc4c[nH]c5ccccc45)NC(=O)[C@H](CCCC)NC(=O)[C@H](Cc4c[nH]c5ccccc45)NC(=O)[C@H](CCCCN)NC(=O)[C@H](CCC(N)=O)NC1=O)C(=O)N[C@@H](CC(=O)O)C(=O)N[C@@H](CO)C(=O)N[C@@H](CCCCN)C(=O)N[C@@H](CCCNC(=N)N)C(=O)N[C@@H](C)C(=O)N3)NC(=O)[C@H](CCCNC(=N)N)NC(=O)[C@H](CC(C)C)NC(=O)CNC(=O)[C@H](CCC(=O)O)NC2=O [Pra-[Nle6, Glu28]JzTx-V(1-29)]	9.86	17.99	0.641	1.17	119	12	–
C#CC[C@H](N)C(=O)N[C@@H](Cc1ccc(O)cc1)C(=O)N[C@H]1CSSC[C@@H]2NC(=O)[C@@H]3CSSC[C@@H](C(=O)N[C@@H](CCCNC(=N)N)C(=O)N[C@@H](CCCCN)C(=O)N[C@@H](CCC(=O)O)C(=O)N[C@H](C(N)=O)[C@@H](C)CC)NC(=O)[C@H](Cc4c[nH]c5ccccc45)NC(=O)[C@H](CC(C)C)NC(=O)[C@H](CCCCN)NC(=O)[C@H](CSSC[C@H](NC(=O)[C@H]([C@@H](C)O)NC(=O)[C@H](Cc4c[nH]c5ccccc45)NC(=O)[C@H](CCCC)NC(=O)[C@H](Cc4c[nH]c5ccccc45)NC(=O)[C@H](CCCCN)NC(=O)[C@H](CCC(N)=O)NC1=O)C(=O)N[C@@H](CC(=O)O)C(=O)N[C@@H](CCC(=O)O)C(=O)N[C@@H](CCCCN)C(=O)N[C@@H](CCCNC(=N)N)C(=O)N[C@@H](C)C(=O)N3)NC(=O)[C@H](CCCNC(=N)N)NC(=O)[C@H](CC(C)C)NC(=O)CNC(=O)[C@H](CCC(=O)O)NC2=O [Pra-[Nle6; Glu11, 28]JzTx-V(1-29)]	–	10.57	–	0.95	–	34	–
C#CC[C@H](N)C(=O)N[C@@H](Cc1ccc(O)cc1)C(=O)N[C@H]1CSSC[C@@H]2NC(=O)[C@@H]3CSSC[C@@H](C(=O)N[C@@H](CCCNC(=N)N)C(=O)N[C@@H](CCCCN)C(=O)N[C@H](C(=O)N[C@H](C(N)=O)[C@@H](C)CC)[C@@H](C)CC)NC(=O)[C@H](Cc4c[nH]c5ccccc45)NC(=O)[C@H](CC(C)C)NC(=O)[C@H](CCCCN)NC(=O)[C@H](CSSC[C@H](NC(=O)[C@H]([C@@H](C)O)NC(=O)[C@H](Cc4c[nH]c5ccccc45)NC(=O)[C@H](CCCC)NC(=O)[C@H](Cc4c[nH]c5ccccc45)NC(=O)[C@H](CCCCN)NC(=O)[C@H](CCC(N)=O)NC1=O)C(=O)N[C@@H](CC(=O)O)C(=O)N[C@@H](CO)C(=O)N[C@@H](CCC(=O)O)C(=O)N[C@@H](CCCNC(=N)N)C(=O)N[C@@H](C)C(=O)N3)NC(=O)[C@H](CCCNC(=N)N)NC(=O)[C@H](CC(C)C)NC(=O)CNC(=O)[C@H](CCCCN)NC2=O [Pra-[Nle6; Glu12; Lys17]JzTx-V(1-29)]	1.27	0.68	0.653	0.35	2.77	2.2	–
C#CC[C@H](N)C(=O)N[C@@H](Cc1ccc(O)cc1)C(=O)N[C@H]1CSSC[C@@H]2NC(=O)[C@@H]3CSSC[C@@H](C(=O)N[C@@H](CCCNC(=N)N)C(=O)N[C@@H](CCCCN)C(=O)N[C@H](C(=O)N[C@H](C(N)=O)[C@@H](C)CC)[C@@H](C)CC)NC(=O)[C@H](Cc4c[nH]c5ccccc45)NC(=O)[C@H](CC(C)C)NC(=O)[C@H](CCCCN)NC(=O)[C@H](CSSC[C@H](NC(=O)[C@H]([C@@H](C)O)NC(=O)[C@H](Cc4c[nH]c5ccccc45)NC(=O)[C@H](CCCC)NC(=O)[C@H](Cc4c[nH]c5ccccc45)NC(=O)[C@H](CCCCN)NC(=O)[C@H](CCC(N)=O)NC1=O)C(=O)N[C@@H](CC(=O)O)C(=O)N[C@@H](CO)C(=O)N[C@@H](CCC(=O)O)C(=O)N[C@@H](CCCNC(=N)N)C(=O)N[C@@H](C)C(=O)N3)NC(=O)[C@H](CCCNC(=N)N)NC(=O)[C@H](CC(C)C)NC(=O)CNC(=O)[C@H](CCC(=O)O)NC2=O [Pra-[Nle6; Glu12]JzTx-V(1-29)]	0.61	0.51	0.58	0.49	6.36	10	–
C#CC[C@H](N)C(=O)N[C@@H](Cc1ccc(O)cc1)C(=O)N[C@H]1CSSC[C@@H]2NC(=O)[C@@H]3CSSC[C@@H](C(=O)N[C@@H](CCCNC(=N)N)C(=O)N[C@@H](CCCCN)C(=O)N[C@@H](CCC(=O)O)C(=O)N[C@H](C(N)=O)[C@@H](C)CC)NC(=O)[C@H](Cc4c[nH]c5ccccc45)NC(=O)[C@H](CC(C)C)NC(=O)[C@H](CCCCN)NC(=O)[C@H](CSSC[C@H](NC(=O)[C@H]([C@@H](C)O)NC(=O)[C@H](Cc4c[nH]c5ccccc45)NC(=O)[C@H](CCCC)NC(=O)[C@H](Cc4c[nH]c5ccccc45)NC(=O)[C@H](CCCCN)NC(=O)[C@H](CCC(N)=O)NC1=O)C(=O)N[C@@H](CC(=O)O)C(=O)N[C@@H](CO)C(=O)N[C@@H](CCC(=O)O)C(=O)N[C@@H](CCCNC(=N)N)C(=O)N[C@@H](C)C(=O)N3)NC(=O)[C@H](CCCNC(=N)N)NC(=O)[C@H](CC(C)C)NC(=O)CNC(=O)[C@H](CCCCN)NC2=O [Pra-[Nle6; Glu12, 28; Lys17]JzTx-V(1-29)]	4.4	0.50	2.01	0.23	63	14	–
C#CC[C@H](N)C(=O)N[C@@H](Cc1ccc(O)cc1)C(=O)N[C@H]1CSSC[C@@H]2NC(=O)[C@@H]3CSSC[C@@H](C(=O)N[C@@H](CCCNC(=N)N)C(=O)N[C@@H](CCCCN)C(=O)N[C@H](C(=O)N[C@H](C(N)=O)[C@@H](C)CC)[C@@H](C)CC)NC(=O)[C@H](Cc4c[nH]c5ccccc45)NC(=O)[C@H](CC(C)C)NC(=O)[C@H](CCCCN)NC(=O)[C@H](CSSC[C@H](NC(=O)[C@H]([C@@H](C)O)NC(=O)[C@H](Cc4c[nH]c5ccccc45)NC(=O)[C@H](CCCC)NC(=O)[C@H](Cc4c[nH]c5ccccc45)NC(=O)[C@H](CCCCN)NC(=O)[C@H](CCC(N)=O)NC1=O)C(=O)N[C@@H](CC(=O)O)C(=O)N[C@@H](CO)C(=O)N[C@@H](CCCCN)C(=O)N[C@@H](CCCNC(=N)N)C(=O)N[C@@H](C)C(=O)N3)NC(=O)[C@H](CCCNC(=N)N)NC(=O)[C@H](CC(C)C)NC(=O)CNC(=O)[C@H](CCC(=O)O)NC2=O [compound 425]	–	–	–	–	–	–	IC50 (hNav1.7 [1]; Table 15, read-out: PX hNav1.7 Tonic IC50): 1.2 nM; Nav1.6/Nav1.7 (hNav1.6; ratio of PX tonic IC50 values): 57; IC50 (hNav1.6; read-out: PX hNav1.6 Tonic IC50): 67.9 nM; IC50 [3]: 5.35 nM; inhibition of TTX-sensitive sodium current, in words ([3]; 1 nM as printed, mouse DRG neurons): almost complete inhibition; block of TTX-sensitive Nav current, in words ([3]; 100 nM): blocked most TTX-sensitive Nav current; fold more potent than JzTx-V in inhibition of TTX-sensitive current ([3]; mouse DRG neurons): about 3 fold; 1.x/1.7 ([3]; partially inactivated, mTTX-S / hNav1.7): 6335; block of hNav1.7 current, in words (hNav1.7 [2]; held at −77 mV, partially inactivated state): fully blocked Nav1.7 current; also recorded: complete inhibition; block of hNav1.7 current, in words (hNav1.7 [2]; held at −140 mV, fully non-inactivated state): fully blocked Nav1.7 current; also recorded: complete inhibition; improvement in hNav1.7 potency over wild type JzTx-V (hNav1.7 [2]; WCPC format): ~200 fold and 190 fold; 1.x/1.7 (hNav1.7 [2]; fully non-inactivated): 1; 1.x/1.7 (hNav1.7 [2]; partially inactivated): 1

Source: patent US10344060B2 (priority 2013, dated 2019)
